Holding throughout (format): biochemical
Assay [1] addresses T1, full length recombinant Pim-3 protein (Homo sapiens, UniProt Q86V86).
T1 construct: by full length recombinant Pim-1, Pim-2, or Pim-3 protein; purchased Millipore (UK)
Briefly: Pim-3 enzyme assay (HTRF, phosphorylation of biotinylated-BAD (S112) peptide). As to conditions: read-out: Pim3 IC50. From the text: Pim-3 was purchased from Millipore (UK).
The phosphorylation of biotinylated-BAD (S112) peptide by full length recombinant Pim-1, Pim-2, or Pim-3 protein was detected with streptavidin:Allophycocyanin (APC) conjugate and a europium (Eu) labeled antibody directed against phosphorylated-BAD (S112). […] The fluorescence is directly proportional to the amount of phosphorylated BAD peptide present in the reaction.
A reference compound was included on each assay plate in order to validate that plate; on one plate of every assay run, two additional reference compounds were included.
The final buffer conditions were as follows: 60 mM Hepes, pH 7.0, 0.05% BSA, 2 mM DTT. […] The reaction was stopped by the addition of 3 mM EDTA, and fluorescence was measured by an HTRF® Rubystar microplate reader. For each plate, percent of control (POC) values were calculated for each well. Values for the IC50 IP were estimated using a standard 4-parameter logistic model.
Background: In TR-FRET formats the signal depends on donor and acceptor labels being close together.

Assay [2] deals with T2, full length recombinant Pim-1 protein (Homo sapiens, UniProt P11309).
T2 construct: by full length recombinant Pim-1, Pim-2, or Pim-3 protein; hexahistidine tag followed by a thrombin cleavage site (N); made in house; host or cells: Sf9 (baculovirus) or E. coli (pET28)
Briefly: Pim-1 enzyme assay (HTRF, phosphorylation of biotinylated-BAD (S112) peptide). As to conditions: enzyme assay, Pim-1; read-out: Pim_1_IC50. A digest of the protocol:
(§1)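 Each full-length human Pim enzyme phosphorylates a biotinylated BAD (S112) peptide, and the product is sensed by Eu anti-phospho-BAD antibody with streptavidin-APC after quenching with 3 mM EDTA. Conditions: 60 mM Hepes pH 7.0, 0.05% BSA, 2 mM DTT.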

In assay [3] the target is T3, full length recombinant Pim-2 protein (Homo sapiens, UniProt Q9P1W9).
T3 construct: by full length recombinant Pim-1, Pim-2, or Pim-3 protein; hexahistidine tag followed by a thrombin cleavage site (N); made in house; host or cells: Sf9 (baculovirus) or E. coli (pET28)
Briefly: Pim-2 enzyme assay (HTRF, phosphorylation of biotinylated-BAD (S112) peptide). As to conditions: enzyme assay, Pim-2; read-out: Pim2_IC50. Summed up:
as §1

T3 sequence (Q9P1W9 whole entry): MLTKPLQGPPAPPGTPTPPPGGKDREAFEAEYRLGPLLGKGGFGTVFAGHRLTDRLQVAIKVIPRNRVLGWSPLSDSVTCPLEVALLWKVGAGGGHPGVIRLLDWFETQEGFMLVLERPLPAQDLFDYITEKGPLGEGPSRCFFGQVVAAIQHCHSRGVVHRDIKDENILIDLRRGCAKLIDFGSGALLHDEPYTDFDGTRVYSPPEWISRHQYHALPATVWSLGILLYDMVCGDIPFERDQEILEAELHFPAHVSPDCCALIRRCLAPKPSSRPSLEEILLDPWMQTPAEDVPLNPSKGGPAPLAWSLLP
T2 sequence (P11309 whole entry): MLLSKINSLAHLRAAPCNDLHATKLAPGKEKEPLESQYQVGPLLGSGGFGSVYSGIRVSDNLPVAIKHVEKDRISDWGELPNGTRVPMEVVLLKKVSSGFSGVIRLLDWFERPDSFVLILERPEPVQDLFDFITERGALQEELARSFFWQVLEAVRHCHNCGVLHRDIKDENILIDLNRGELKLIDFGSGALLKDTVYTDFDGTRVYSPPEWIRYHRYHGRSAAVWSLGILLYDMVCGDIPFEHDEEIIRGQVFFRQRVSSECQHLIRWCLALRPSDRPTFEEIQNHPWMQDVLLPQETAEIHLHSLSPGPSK

For the molecule `c1cc(-c2ccc3[nH]nc(-c4cncc(O[C@@H]5CCCNC5)n4)c3c2)nc(C2CC2)c1` [Example 136, 5-(6-cyclopropyl-2-pyridinyl)-3-(6-((3R)-3-piperidinyloxy)-2-pyrazinyl)-1H-indazole], the IC50 is 0.015 µM in assay [1], 0.03 µM in assay [2] and 0.164 µM in assay [3].
Regarding `c1cc(C2CC2)cc(-c2ccc3[nH]nc(-c4cncc(O[C@@H]5CCCNC5)n4)c3c2)n1` [Example 141, 5-(4-cyclopropyl-2-pyridinyl)-3-(6-((3R)-3-piperidinyloxy)-2-pyrazinyl)-1H-indazole], the results for the IC50 in assay [1], in assay [2] and in assay [3] were 0.032 µM, 0.042 µM and 0.435 µM, respectively.
Consider `CC(C)Oc1cccc(-c2ccc3[nH]nc(-c4cncc(O[C@@H]5CCCNC5)n4)c3c2)n1` [Example 144, 5-(6-(1-methylethoxy)-2-pyridinyl)-3-(6-((3R)-3-piperidinyloxy)-2-pyrazinyl)-1H-indazole], for which the values for the IC50 in assay [1], in assay [2] and in assay [3] were 0.026 µM, 0.027 µM and 0.252 µM, respectively.
For `c1cc2[nH]nc(-c3cncc(O[C@@H]4CCCNC4)n3)c2cc1-c1ccc2nncn2c1` [Example 145, 6-(3-(6-((3R)-3-piperidinyloxy)-2-pyrazinyl)-1H-indazol-5-yl)[1,2,4]triazolo[4,3-a]pyridine], in that order: 0.08 µM, 0.023 µM and 0.496 µM.
The corresponding values for `FC(F)(F)Oc1cccc(-c2ccc3[nH]nc(-c4cncc(O[C@@H]5CCCNC5)n4)c3c2)c1` [Example 150, 3-(6-((3R)-3-piperidinyloxy)-2-pyrazinyl)-5-(3-(trifluoromethoxy)phenyl)-1H-indazole] are 0.029 µM, 0.035 µM and 0.214 µM.
For `c1cc2[nH]nc(-c3cncc(O[C@@H]4CCCNC4)n3)c2cc1C1CCOCC1` [Example 151, 3-(6-((3R)-3-piperidinyloxy)-2-pyrazinyl)-5-(tetrahydro-2H-pyran-4-yl)-1H-indazole], in that order: 0.129 µM, 0.027 µM and 0.118 µM.
In the case of `Oc1nccc(-c2ccc3[nH]nc(-c4cncc(O[C@@H]5CCCNC5)n4)c3c2)n1` [Example 155, 4-(3-(6-((3R)-3-piperidinyloxy)-2-pyrazinyl)-1H-indazol-5-yl)-2-pyrimidinol], the IC50 in assay [1] stood at 0.027 µM; in assay [2], 0.036 µM; in assay [3], 0.108 µM.
For `c1cc2[nH]nc(-c3cncc(O[C@@H]4CCCNC4)n3)c2cc1C1CCCOC1` (stereo partly drawn) [Example 156, 3-(6-((3R)-3-piperidinyloxy)-2-pyrazinyl)-5-(tetrahydro-2H-pyran-3-yl)-1H-indazole], in that order: 0.066 µM, 0.049 µM and 0.144 µM.
In the case of `Fc1cccc(F)c1-c1ccc2[nH]nc(-c3cncc(N4CCCC4)n3)c2c1` [Example 170, 5-(2,6-difluorophenyl)-3-(6-(1-pyrrolidinyl)-2-pyrazinyl)-1H-indazole], the IC50 in assay [1] is 0.187 µM; in assay [2], 0.153 µM; in assay [3], > 3 µM.
The corresponding values for `O[C@H]1CCN(c2cncc(-c3n[nH]c4ccc(-c5c(F)cccc5F)cc34)n2)C1` [Example 175, (3S)-1-(6-(5-(2,6-difluorophenyl)-1H-indazol-3-yl)-2-pyrazinyl)-3-pyrrolidinol] are 0.153 µM, 0.168 µM and 1.18 µM.
The corresponding values for `CNc1cncc(-c2n[nH]c3ccc(-c4c(F)cccc4F)cc23)n1` [Example 179, 6-(5-(2,6-difluorophenyl)-1H-indazol-3-yl)-N-methyl-2-pyrazinamine] are 0.122 µM, 0.168 µM and 0.858 µM.
For the molecule `CN(C)c1cncc(-c2n[nH]c3ccc(-c4c(F)cccc4F)cc23)n1` [Example 181, 6-(5-(2,6-difluorophenyl)-1H-indazol-3-yl)-N,N-dimethyl-2-pyrazinamine], the IC50 in assay [1] was determined as 0.146 µM; in assay [2] it was 0.206 µM; in assay [3], 2.08 µM.
For `CNc1nccc(-c2n[nH]c3ccc(-c4c(F)cccc4F)cc23)n1` [Example 192, 4-(5-(2,6-difluorophenyl)-1H-indazol-3-yl)-N-methyl-2-pyrimidinamine], in that order: 0.175 µM, 0.147 µM and 1.25 µM.
The corresponding values for `CC(C)Nc1nccc(-c2n[nH]c3ccc(-c4c(F)cccc4F)cc23)n1` [Example 193, 4-(5-(2,6-difluorophenyl)-1H-indazol-3-yl)-N-(1-methylethyl)-2-pyrimidinamine] are 0.143 µM, 0.161 µM and 1.34 µM.
The corresponding values for `C[C@@H]1CCNC[C@H]1Oc1cncc(-c2n[nH]c3ccc(-c4c(F)cccc4F)cc23)n1` [Example 197, 5-(2,6-difluorophenyl)-3-(6-(((3S,4R)-4-methyl-3-piperidinyl)oxy)-2-pyrazinyl)-1H-indazole] are 0.018 µM, 0.037 µM and 0.187 µM.
Consider `Fc1cccc(F)c1-c1ccc2[nH]cc(-c3nccc(NC4CCNCC4)n3)c2c1` [Example 210, 2-(5-(2,6-difluorophenyl)-1H-indol-3-yl)-N-4-piperidinyl-4-pyrimidinamine], for which the IC50 in assay [1] was determined as 0.091 µM; in assay [2] it was 0.12 µM; in assay [3], 0.424 µM.
With `Fc1cccc(F)c1-c1ccc2[nH]cc(-c3cncc(O[C@H]4CCCNC4)n3)c2c1` [Example 214, 5-(2,6-difluorophenyl)-3-(6-((3S)-3-piperidinyloxy)-2-pyrazinyl)-1H-indole], the values for the IC50 in assay [1], in assay [2] and in assay [3] were 0.083 µM, 0.045 µM and 0.515 µM, respectively.
For `CC(C)Oc1cncc(-c2ccc3[nH]cc(-c4ccc(F)cn4)c3c2)n1` [Example 215, 3-(5-fluoro-2-pyridinyl)-5-(6-(1-methylethoxy)-2-pyrazinyl)-1H-indole], in that order: 0.538 µM, 1.64 µM and > 3 µM.
Take `Cc1ccnc(-c2c[nH]c3ccc(-c4cncc(OC(C)C)n4)cc23)c1` [Example 216, 5-(6-(1-methylethoxy)-2-pyrazinyl)-3-(4-methyl-2-pyridinyl)-1H-indole]: the IC50 in assay [1] came to 0.245 µM; in assay [2], 0.601 µM; in assay [3], 2.15 µM.
The corresponding values for `CC(C)Oc1cncc(-c2ccc3[nH]cc(-c4cccc(N)n4)c3c2)n1` [Example 217, 6-(5-(6-(1-methylethoxy)-2-pyrazinyl)-1H-indol-3-yl)-2-pyridinamine] are 0.156 µM, 0.765 µM and 2.35 µM.
The corresponding values for `CC(C)Oc1cncc(-c2ccc3[nH]cc(-c4cc(N)ccn4)c3c2)n1` [Example 218, 2-(5-(6-(1-methylethoxy)-2-pyrazinyl)-1H-indol-3-yl)-4-pyridinamine] are 0.317 µM, 0.805 µM and > 3 µM.
For `Cc1ccc(-c2c[nH]c3ccc(-c4cncc(OC(C)C)n4)cc23)nc1` [Example 219, 5-(6-(1-methylethoxy)-2-pyrazinyl)-3-(5-methyl-2-pyridinyl)-1H-indole], in that order: 0.692 µM, 1.13 µM and > 3 µM.
Regarding `CC(C)Oc1cncc(-c2ccc3[nH]cc(-c4cccc(N5CCOCC5)n4)c3c2)n1` [Example 220, 5-(6-(1-methylethoxy)-2-pyrazinyl)-3-(6-(4-morpholinyl)-2-pyridinyl)-1H-indole], the IC50 in assay [1] is 0.329 µM; in assay [2], 0.494 µM; in assay [3], > 3 µM.
For `COc1cnc(-c2c[nH]c3ccc(-c4cncc(OC(C)C)n4)cc23)cn1` [Example 222, 3-(5-methoxy-2-pyrazinyl)-5-(6-(1-methylethoxy)-2-pyrazinyl)-1H-indole], in that order: 0.445 µM, 0.732 µM and > 3 µM.
Turning to `CC(C)Oc1cncc(-c2ccc3[nH]cc(-c4cccc(-n5cccn5)n4)c3c2)n1` [Example 223, 5-(6-(1-methylethoxy)-2-pyrazinyl)-3-(6-(1H-pyrazol-1-yl)-2-pyridinyl)-1H-indole], the IC50 in assay [1] is 0.15 µM; in assay [2], 0.142 µM; in assay [3], > 3 µM.
`COc1cncc(-c2c[nH]c3ccc(-c4cncc(OC(C)C)n4)cc23)n1` [Example 224, 3-(6-methoxy-2-pyrazinyl)-5-(6-(1-methylethoxy)-2-pyrazinyl)-1H-indole]: the IC50 in assay [1] was determined as 0.126 µM; in assay [2] it was 0.216 µM; in assay [3], 2.27 µM.

Source of the values: patent US9090593B2, “Bicyclic compounds as Pim inhibitors” (AMGEN INC., priority 2010, dated 2015).
